Values of other authors, collected in patent publication US12458027B2, “Glyphosate composition for dicamba tank mixtures with improved volatility” (Monsanto Technology LLC, priority 2013, dated 2025).

Settings: 25° C.

SMILES: O=C(O)CNCP(=O)(O)O [Glyphosate acid, N-(phosphonomethyl)glycine]
- solubility in water: about 1.16 wt. %
